The nature of this data set: Amount of compound an AA-1 polymer formulation can hold. The format is physicochemical. To be noted: by weight. An excerpt: The formulations may be made by mixing the N-halogenated or N,N-dihalogenated amine compound with the polymer using water. Water/oil emulsions, hydrating agents, wetting agents, surfactants, and the like may also be used. Concentrations of N-halogenated or N,N-dihalogenated amine compound may range from about 0.01% to about 5.0% (by weight). Concentrations of polymer may be from about 0.01% to about 10% (by weight) in water. For example, in certain implementations, the concentration of N-halogenated or N,N-dihalogenated compounds may range from about 0.1% to about 2.0% (by weight). Higher concentrations of polymer may be required to formulate higher concentrations of the N-halogenated or N,N-dihalogenated amine compound. For example, a 1% AA-1 formulation can hold up to about 2% N,N-dichloro-2,2-dimethyltaurine, whereas a 2% AA-1 formulation can hold up to about 3.5% of the same compound. These ratios may differ as different polymers and N-halogenated or N,N-dihalogenated amine compound are combined in a given formulation.

For the molecule `CC(C)(CS(=O)(=O)O)N(Cl)Cl` [NVC-422, N,N-dichloro-2,2-dimethyltaurine], the “amount of compound the formulation can hold” value was “about 2%” (1% AA-1 formulation) and “about 3.5%” (2% AA-1 formulation).

These data come from patent US20140227201A1, “Antimicrobial Gel Formulations” (NovaBay Pharmaceuticals, Inc., priority 2013, published 2014).
